Patent publication US8946299B2, “Use of calixarenes associated with an antibiotic in the treatment of bacterial infections” (Universite de Lorraine, priority 2011, dated 2015)
Read-outs that look alike come from different tables or passages of the source.

What was measured:
[1] = tested on: Pseudomonas aeruginosa strain having a resistance to β-lactams, the trimethoprim-sulphamethoxazole combination and fosfomycin (PaR2); format: cell-based; conditions: antibiotic used alone; second figure of the cell; n = 4
Description: (§1) Three reference strains were used, corresponding to those studied for the MICs and MBCs (Minimum Bactericidal Concentration): Escherichia coli ATCC 25922, Staphylococcus aureus ATCC 29213, Pseudomonas aeruginosa ATCC 27853. For each of these strains 3 corresponding clinical isolates were chosen, having various antibiotic-resistance profiles, routinely used in standard fashion: • EcR1, EcR2, EcR3; • SaR1, SaR3, SaR4; • PaR2, PaR3, PaR5.
(§2) 1.3. Procedure: Chessboard Technique
(§3) The bacterial suspension is transferred to a 15 mL Falcon tube, centrifuged for 10 min at 4500 g, then the pellet is re-suspended in 1 mL of sterile distilled water. Suitable dilutions are then prepared in order to obtain a bacterial inoculum between 5·10^5 and 5·10^6 CFU/mL.
(§4) The MICs of the antibiotics were previously determined for each strain, by the method of microdilution in a liquid medium (CLSI (Clinical and Laboratory Standards Institute), 2003).
(§5) The same procedure is followed for the Cx1. […] Thus 64 ATB/Cx1 combinations are obtained.
(§6) The final volume contained in each of the wells must be 100 μL. Two controls must be present on each plate: • column 1 and 12: medium control • column 2 and 11: medium+bacteria control
(§7) Cx1: […] in the wells of […], starting with the lowest concentration.
(§8) ATB: 25 μL in the wells of rows H to A (columns 3 to 11), starting with the lowest concentration.
(§9) 50 μL in each of the wells of columns 2 to 11.
(§10) D2: Reading the Turbidity at 540 Nm.
(§11) The FIC (Fractional Inhibitory Concentration Index) value is determined by the following formula:
(§12) [formula] MICA in combination MICA alone MICB in combination MICB alone
(§13) When FIC≦0.5, there is a synergistic effect between antibiotic A and antibiotic B.
(§14) When 0.5<FIC≦1, there is an additive effect between antibiotic A and antibiotic B.
(§15) When 1<FIC≦4, there is an indifferent effect between antibiotic A and antibiotic B.
(§16) When FIC>4, there is an antagonistic effect between antibiotic A and antibiotic B.
(§17) For each strain and each antibiotic/Cx1 combination, the experiments were repeated a minimum of 3 times.

[2] = tested on: EcR3: ESBL-Producing Escherichia coli; assay: Antibiogram by the disk diffusion technique; format: cell-based; conditions: Table C1; strain EcR3
Experimental: 5.3 EcR3: ESBL-Producing Escherichia coli with Associated Resistance to the Aminoglycosides, Rifampicin and the Trimethoprim-Sulphamethoxazole Combination
The bacterial and antibiogram identification is carried out by the VITEK 2 system (bioMérieux) and by the disk diffusion technique

[3] = tested on: PaR2: Pseudomonas aeruginosa; format: cell-based; conditions: Table G1; strain PaR2
Experimental: (§18) 5.7 PaR2: Pseudomonas aeruginosa Having an Associated Resistance to the β-Lactams, the Trimethoprim-Sulphamethoxazole Combination and Fosfomycin The bacterial and antibiogram identification is carried out by the VITEK 2 system (bioMérieux) and by the disk diffusion technique

[4] = tested on: EcR1: Penicillinase-Producing Escherichia coli without Associated Resistance; assay: Antibiogram by the disk diffusion technique; format: cell-based; conditions: for Results (diameter): Table A1, category from diameter vs Dmin Dmax
Experimental: (§19) 5. Identification and Antibiogram 5.1 EcR1: Penicillinase-Producing Escherichia coli without Associated Resistance
(§20) The bacterial and antibiogram identification is carried out by the VITEK 2 system (bioMérieux) and by the disk diffusion technique.

[5] = tested on: mucoid strain of Pseudomonas aeruginosa having a resistance to rifampicin and the trimethoprim-sulphamethoxazole combination (PaR5); assay: Chessboard technique: MICs alone and synergism of Cx1 combinations; format: cell-based; conditions: antibiotic used alone; second figure of the cell; n = 4
Description: as §1, §2, §3, §4, §5, §6, §7, §8, §9, §10, §11, §12, §13, §14, §15, §16, §17

[6] = tested on: Pseudomonas aeruginosa strain ATCC 27853 (wild type); assay: as above; format: cell-based; conditions: antibiotic used alone; second figure of the cell; n = 4
Description: as §1, §2, §3, §4, §5, §6, §7, §8, §9, §10, §11, §12, §13, §14, §15, §16, §17

[7] = tested on: Pseudomonas aeruginosa strain having a resistance to β-lactams (including the carbapenems), aminoglycosides, the trimethoprim-sulphamethoxazole combination and …; assay: as above; format: cell-based; conditions: antibiotic used alone; second figure of the cell; n = 4
Description: as §1, §2, §3, §4, §5, §6, §7, §8, §9, §10, §11, §12, §13, §14, §15, §16, §17

[8] = tested on: PaR5: Pseudomonas aeruginosa; assay: Antibiogram by the disk diffusion technique; format: cell-based; design: unit not given here; conditions: Table I1; strain PaR5
[9] = tested on: SaR4: Meticillin-Resistant Staphylococcus aureus; assay: Antibiogram, MIC by the VITEK 2 system; format: cell-based
Experimental: 5.6 SaR4: Meticillin-Resistant Staphylococcus aureus Having an Associated Resistance to the Aminoglycosides, Fluoroquinolones, Macrolides-Lincosamines-Synergistins and Ofloxacin The bacterial and antibiogram identification is carried out by the VITEK 2 system (bioMérieux) and by the disk diffusion technique
as §18

[10] = tested on: MRSA strain without associated resistance (SaR1); assay: Chessboard technique: MICs alone and synergism of Cx1 combinations; format: cell-based, Staphylococcus aureus; conditions: Staphylococcus aureus, MRSA, read-out: MIC (antibiotic)
Description: as §1, §2, §3, §4, §5, §6, §7, §8, §9, §10, §11, §12, §13, §14, §15, §16, §17

[11] = tested on: MRSA strain having a resistance to the aminoglycosides and fluoroquinolones (SaR3); assay: as above; format: cell-based, Staphylococcus aureus; conditions: Staphylococcus aureus, MRSA, read-out: MIC (antibiotic)
Description: as §1, §2, §3, §4, §5, §6, §7, §8, §9, §10, §11, §12, §13, §14, §15, §16, §17

[12] = as above; format: cell-based, Staphylococcus aureus; conditions: Staphylococcus aureus, MRSA, read-out: MIC (antibiotic)
Description: as §1, §2, §3, §4, §5, §6, §7, §8, §9, §10, §11, §12, §13, §14, §15, §16, §17

[13] = tested on: Staphylococcus aureus strain ATCC 29213 (wild type); assay: as above; format: cell-based; conditions: Staphylococcus aureus, ATCC29213, read-out: Initials MIC (antibiotic)
Description: as §1, §2, §3, §4, §5, §6, §7, §8, §9, §10, §11, §12, §13, §14, §15, §16, §17

[14] = tested on: Escherichia coli, Staphylococcus aureus and Pseudomonas aeruginosa strains; assay: Chessboard technique, summary over all strains and combinations tested; format: cell-based
Description: as §1, §2
The FIC (Fractional Inhibitory Concentration Index) value is determined by the following formula: […]
as §17

[15] = tested on: EcR1: Penicillinase-Producing Escherichia coli without Associated Resistance; assay: Antibiogram, MIC by the VITEK 2 system; format: cell-based; conditions: Table A1, category from MIC
Experimental: as §19, §20

[16] = tested on: EcR2: Cephalosporinase-Hyperproducing Escherichia coli; assay: Antibiogram by the disk diffusion technique; format: cell-based; conditions: Table B2; strain EcR2; diameters
Experimental: 5.2 EcR2: Cephalosporinase-Hyperproducing Escherichia coli Having an Associated Resistance to the Aminoglycosides, Quinolones and the Trimethoprim-Sulphamethoxazole Combination
The bacterial and antibiogram identification is carried out by the VITEK 1 system (bioMérieux) and by the disk diffusion technique

[17] = tested on: cephalosporinase-hyperproducing strain of Escherichia coli (EcR2); assay: Chessboard technique: MICs alone and synergism of Cx1 combinations; format: cell-based; conditions: antibiotic used alone; second figure of the cell; n = 4
Description: as §1, §2, §3, §4, §5, §6, §7, §8, §9, §10, §11, §12, §13, §14, §15, §16, §17

[18] = tested on: ESBL-producing strain of Escherichia coli (EcR3); assay: as above; format: cell-based; conditions: antibiotic used alone; second figure of the cell; n = 4
Description: as §1, §2, §3, §4, §5, §6, §7, §8, §9, §10, §11, §12, §13, §14, §15, §16, §17

| Molecule | MIC (antibiotic) [1] [µg/mL] | Results (diameter) [4] | MIC (antibiotic) [5] [µg/mL] | MIC (antibiotic) [6] [µg/mL] | MIC (antibiotic) [7] [µg/mL] | Diameter [8] | nature of the interaction between Cx1 and the antibiotic [14] | Results (MIC) [15] | diameter in mm [16] [mm] | Initial MICs (antibiotic) [17] [mg/L] | Initial MICs (antibiotic) [18] [mg/L] | other results |
| --- | --- | --- | --- | --- | --- | --- | --- | --- | --- | --- | --- | --- |
| Colimycin | 8 | Susceptible | 16 | 4 | 8 | 23 | – | – | – | – | – | Diameter [2]: 16; Diameter [3]: 20; Diameter ([4]; Table A1, disk diffusion): 15; diameter in mm ([4]; Table A2, diameter): 15 mm |
| CN[C@H](CC(C)C)C(=O)N[C@H]1C(=O)N[C@@H](CC(N)=O)C(=O)N[C@H]2C(=O)N[C@H]3C(=O)N[C@H](C(=O)N[C@H](C(=O)O)c4cc(O)cc(O)c4-c4cc3ccc4O)[C@H](O)c3ccc(c(Cl)c3)Oc3cc2cc(c3O[C@@H]2O[C@H](CO)[C@@H](O)[C@H](O)[C@H]2O[C@H]2C[C@](C)(N)[C@H](O)[C@H](C)O2)Oc2ccc(cc2Cl)[C@H]1O [Vancomycin] | – | – | – | – | – | – | – | – | – | – | – | MIC ([9]; Staphylococcus aureus, read-out: MIC mg/L): 1 mg/L; MIC ([9]; Table F2, strain SaR4, cells of the mixed column that are MICs): 1 mg/L; MIC [10]: 0.25 µg/mL; MIC [11]: 0.25 µg/mL; MIC [12]: 0.25 µg/mL; MIC [13]: 0.5 µg/mL |
| CCn1cc(C(=O)O)c(=O)c2cc(F)c(N3CCNCC3)cc21 [Norofloxacin] | – | – | – | – | – | 17 | – | – | – | – | – | – |
| CC(C)(O/N=C(\C(=O)N[C@@H]1C(=O)N2C(C(=O)[O-])=C(C[n+]3ccccc3)CS[C@H]12)c1csc(N)n1)C(=O)O [Ceftazidime] | 8 | – | 8 | 4 | 16 | – | synergism | Susceptible | 20 | 8 | 1 | – |
| NC[C@H]1O[C@H](O[C@H]2[C@H](O)[C@@H](O[C@H]3O[C@H](CO)[C@@H](O)[C@H](N)[C@H]3O)[C@H](N)C[C@@H]2N)[C@H](N)C[C@@H]1O [Tobramycin] | 1 | Susceptible | 1 | 0.5 | 64 | – | synergism | Susceptible | 10 | 4 | 4 | – |
